What was measured:
[1] = Pharmacokinetic experiment in mice; type: in vivo, CB17-SCID mice
Description: Experimental materials: GB17-SCID mice were purchased from Beijing Vital River Laboratory Animal Technology Co., Ltd.; DMSO, HP-β-CD (Hydroxypropyl-β-cyclodextrin), MC (methyl cellulose) and acetonitrile were purchased from Merck & Co., Inc. (USA), and K2EDTA anticoagulation tubes were purchased from Jiangsu Xinkang Medical Instrument Co., Ltd.
Experiment method: Six female CB17-SCID mice (20-30 g, 4-6 weeks) were randomized into 2 groups, 3 mice/group. Group 1 was given compound 002 via tail vein injection at a dose of 2 mg/kg, and the vehicle was 5% of DMSO+95% of 10% HP-β-CD aqueous solution; and group 2 was given compound 002 orally at a dose of 10 mg/kg, and the vehicle was 0.5% MC aqueous solution. Prior to the experiment, the animals were given food and water as usual. At pre-dose and 0.083 (only for the vein injection group), 0.25, 0.5, 1, 2, 4, 6, 8 and 24 h post-dose, blood was sampled from the mice in each group from the vein. The whole blood sample collected was placed in a K2EDTA anticoagulation tube and centrifuged for 5 min (4000 rpm, 4° C.) and then the plasma was taken for detection.
10 μL of the mouse plasma sample was taken and 150 μL of acetonitrile solvent (wherein internal standard compound was contained) was added to precipitate proteins. After the mixture was vortexed for 0.5 min, centrifugation (4700 rpm, 4° C.) was performed for 15 min. The supernatant was diluted 2-fold with water containing 0.05% (v/v) formic acid and 3 μL was injected into the LC-MS/MS system (AB Sciex Triple Quad 6500+) for the quantitative detection. The concentrations of the samples were determined with the present of plasma standard curve (linear range: 0.5-1000 ng/mL) of CB17-SCID mice and quality control samples. For the preparation of 10-fold diluted samples, 2 μL of mouse plasma sample was taken and 18 μL of blank plasma was added. After the mixture was vortexed for 0.5 min, 300 μL of acetonitrile solvent (wherein internal standard compound was contained) was added to precipitate proteins. The other processing steps were identical to those for the samples not diluted.

[2] = system: Z-138 cells; experiment: Inhibitory activity on tumor cell proliferation (Cell-Titer Glo, 8 days); type: cell-based; details: Homo sapiens, 192 h, read-out: Inhibition of cell proliferation Z-138 IC50
Protocol: Materials and cells: Z-138 cells were purchased from ATCC (USA); IMDM medium and penicillin-streptomycin were purchased from Sigma PLC. (USA); horse serum was purchased from Hyclone (USA); 96-well plate was purchased from Corning (USA); and Cell-Titer Glo reagent was purchased from Promega (USA).
Cell culture: Z-138 cells were cultured in an IMDM culture solution containing 10% Horse serum+1% penicillin−streptomycin at 37° C., 5% CO2. Cells in logarithmic growth phase were suitable for the experiment.
Detection of cell proliferation activity: The inhibitory activities of the compounds on the proliferation of Z-138 cells were detected by using the Cell-Titer Glo reagent. The concentrations of the cells were adjusted, and 180 μL was inoculated in each well of the 96-well plate (500/well) and equilibrated for 10-15 minutes at 37° C., 5% CO2. 20 μL of a culture solution containing the compounds was added into each well with the final concentration reaching 0-300 nM (initial concentration: 300 nM, 3-fold dilution, for 10 points), and the DMSO content was 0.1%. The cell plate was placed at 37° C., 5% CO2 and incubated for 8 days. Culture solution was replaced at day 4: 100 μL of the supernatant was slowly aspirated and 100 μL of a fresh culture solution containing the compounds was provided as a supplement while the concentrations of the compounds were held constant. The cell viability was detected by using the Cell-Titer Glo reagent.

[3] = system: Z-138 subcutaneous tumor models; experiment: In vivo drug efficacy experiment in mice, Z-138 subcutaneous tumor model
Description: Experimental materials: Z138 cells were purchased from ATCC; IMDM culture solution, penicillin-streptomycin and 0.25% trypsin-EDTA were purchased from Gibco; horse serum and PBS were purchased from Hyclone; and Matrigel was purchased from Corning.
Animal information: CB17-SCID mice (female, 6-7 weeks, body weight: about 14-20 g) were purchased from Shanghai Lingchang Biotechnology Co., Ltd. The mice were fed in SPF environment and each cage position was individually ventilated. All animals had free access to standard certified commercial laboratory food and water.
Cell culture: Human mantle cell lymphoma Z-138 cell lines were cultured in vitro and the culture conditions involve: IMDM (cell culture solution) supplemented with 10% horse serum and 1% penicillin-streptomycin solution, 37° C., 5% CO2 incubator. Conventional digestion treatment with 0.25% trypsin-EDTA digestion solution was carried out twice a week for passage. When the cell saturation was 85%-90%, and the number reached the requirement, the cells were collected and counted.
Cell inoculation: 0.1 ml/(containing 1×10^7) Z-138 cell suspension (PBS Matrigel=1:1) was inoculated subcutaneously on the right back of each mouse. At day 18 post inoculation, when the average tumor volume measured has reached about 125 mm^3, grouping and administration were performed by using the randomized stratification and grouping method based on the tumor volume and animal body weight. PBS was a phosphate buffer free of Ca and Mg ions, and Matrigel was a matrix gel.
Administration: Compound 002 was administered at the doses of 1.5 mg/kg, 5 mg/kg, or 15 mg/kg, PO, twice daily (BID)×3 weeks. 6 mice per group.
The diameter of the tumor was measured with vernier calipers twice a week. The calculation formula of tumor volume was V=0.5a×b2, wherein a and b represented the long and short diameters of the tumor, respectively. The body weights of the mice were weighed twice a week.
The tumor-inhibiting efficacy of the compound was evaluated using tumor growth inhibition (TGI) (%).
TGI (%)=[(1−(average tumor volume at the end of administration in a certain treatment group−average tumor volume at the beginning of administration in the treatment group)/(average tumor volume at the end of administration in the solvent control group−average tumor volume at the beginning of administration in the solvent control group)]×100%.

[4] = female, CB17-SCID, mouse, plasma, 10 mg/kg, Mice PO (10 mpk)
[5] = tested doses 1.5, 5, 15 mg/kg BID

CCN1CCN(C[C@@H](O)[C@@H]2Cc3ccccc3CN2)C(=O)c2ccc(C(=O)N3CCC4(CC3)CC(OC)C4)cc21.Cl [Compound 002, 1-ethyl-4-((R)-2-hydroxy-2-((S)-1,2,3,4-tetrahydroisoquinolin-3-yl)ethyl)-8-(2-methoxy-7-azaspiro[3.5]nonane-7-carbonyl)-1,2,3,4-tetrahydro-5H-benzo[e][1,4]diazepin-5-one hydrochloride]
Cl_obs ([1]; Mice IV (2 mpk)): 61.1 ± 6.2 mL/min/kg | F ([1]; Mice PO (10 mpk)): 96.5 ± 20.5% | half-life ([1]; female, CB17-SCID, mouse, plasma, 2 mg/kg, Mice IV (2 mpk)): 3.56 ± 0.55 h | Vd ([1]; female, CB17-SCID, mouse, plasma, 2 mg/kg, Mice IV (2 mpk), read-out: Vss—obs): 8.2 ± 0.6 L/kg | AUC(0-t) [1, 4]: 2650 ± 563 ng·h/mL | Cmax [1, 4]: 827 ± 79 ng/mL | Tmax [1, 4]: 0.33 ± 0.14 h | half-life [1, 4]: 2.68 ± 0.2 h | IC50 [2]: 2.19 nM | TGI ([3]; 1.5 mg/kg PO BID x 3 weeks): 36.0% | Average tumor volume ([3]; 1.5 mg/kg PO BID, 0 Day): 125 mm^3 | Average tumor volume ([3]; 1.5 mg/kg PO BID, 4 Day): 151 mm^3 | Average tumor volume ([3]; 1.5 mg/kg PO BID, 7 Day): 203 mm^3 | Average tumor volume ([3]; 1.5 mg/kg PO BID, 11 Day): 374 mm^3 | Average tumor volume ([3]; 1.5 mg/kg PO BID, 14 Day): 436 mm^3 | Average tumor volume ([3]; 1.5 mg/kg PO BID, 18 Day): 567 mm^3 | Average tumor volume ([3]; 1.5 mg/kg PO BID, 21 Day): 689 mm^3 | TGI ([3]; 5 mg/kg PO BID x 3 weeks): 47.8% | Average tumor volume ([3]; 5 mg/kg PO BID, 0 Day): 124 mm^3 | Average tumor volume ([3]; 5 mg/kg PO BID, 4 Day): 157 mm^3 | Average tumor volume ([3]; 5 mg/kg PO BID, 7 Day): 197 mm^3 | Average tumor volume ([3]; 5 mg/kg PO BID, 11 Day): 281 mm^3 | Average tumor volume ([3]; 5 mg/kg PO BID, 14 Day): 310 mm^3 | Average tumor volume ([3]; 5 mg/kg PO BID, 18 Day): 452 mm^3 | Average tumor volume ([3]; 5 mg/kg PO BID, 21 Day): 585 mm^3 | TGI ([3]; 15 mg/kg PO BID x 3 weeks): 112.5% | Average tumor volume ([3]; 15 mg/kg PO BID, 0 Day): 126 mm^3 | Average tumor volume ([3]; 15 mg/kg PO BID, 4 Day): 140 mm^3 | Average tumor volume ([3]; 15 mg/kg PO BID, 7 Day): 113 mm^3 | Average tumor volume ([3]; 15 mg/kg PO BID, 11 Day): 59 mm^3 | Average tumor volume ([3]; 15 mg/kg PO BID, 14 Day): 34 mm^3 | Average tumor volume ([3]; 15 mg/kg PO BID, 18 Day): 18 mm^3 | Average tumor volume ([3]; 15 mg/kg PO BID, 21 Day): 16 mm^3 | Death in mice [3, 5]: nor did they cause any death in mice | Effect on body weights of the mice [3, 5]: do not significantly affect the body weights of the mice | Tolerability [3, 5]: the mice can tolerate the doses | Effect on tumor growth ([3]; twice daily at 1.5 mg/kg, 5 mg/kg and 15 mg/kg): significant inhibitory effects on tumor growth | Effect on tumor size ([3]; twice daily at 15 mg/kg): effect of shrinking tumor

From patent US20230250108A1, “TETRAHYDROISOQUINOLINE COMPOUNDS AND USE THEREOF” (JIANGSU SIMCERE PHARMACEUTICAL CO., LTD., priority 2020, published 2023)
